# In patent US12478067B2, “Heterocyclic compound and harmful arthropod pest control composition containing same” (SUMITOMO CHEMICAL COMPANY, LIMITED, priority 2019, dated 2025):
# Columns and labels:
# Type in all cases: in vivo
# [1] = system: common house mosquito (Culex pipiens pallens); experiment: whole plant or invertebrate; details: 24 h, Test Example 8, last instar larvae, after 1 day, 25° C., read-out: mortality of insects
# Source text: Mortality (%)=(Number of dead insects/Number of tested insects)×100
# [2] = system: Western corn rootworms (Diabrotica virgifera virgifera); experiment: whole plant or invertebrate; details: 120 h, Test Example 9-1, corn seedling immersed 30 seconds, second instar larvae, after 5 days, 25° C., read-out: mortality of insects
# Description: Each 1 mg of the test compounds is dissolved into 50 μL of a mixed solution of polyoxyethylene sorbitan mono-cocoate and acetone (polyoxyethylene sorbitan mono-cocoate:acetone=5:95 (v/v ratio)).
# A young entire seedling of Corns (Zea mays) is immersed into the diluted solution for 30 seconds. […] Mortality (%)=(Number of dead insects/10}×100
# [3] = system: housefly (Musca domestica); experiment: Test method 7: coated container, housefly female adults; details: Test Example 7-1, container coated at 40 mg/m^2 (800 ppm acetone solution), elapsed time 1 hour, 25° C., read-out: mortality of insects
# Description: An acetone solution which is adjusted to 800 ppm of the test compound is poured into a container having 20 mL contents, and the test compound is coated uniformly on inner face of the container so as to make 40 mg/m^2 thereof, and the container is then allowed to dry.
# Into the container, five (5) housefly (Musca domestica) female adults are released into the container, and the container is then covered with the lid. […] Mortality (%)=(Number of dead insects/Number of tested insects)×100
# [4] = system: housefly (Musca domestica); experiment: Test method 6: filter paper with sucrose bait, housefly female adults; details: Test Example 6, 0.7 ml on filter paper with sucrose bait, after 24 hours, 25° C., read-out: mortality of insects
# Description: A filter paper having a diameter of 5.5 cm in diameter is spread on the bottom of the cup, and then 0.7 ml of the diluted solutions are added dropwise to the filter paper and 30 mg of sucrose is uniformly placed on the filter paper as a bait. Ten (10) housefly (Musca domestica) female adults are released into the cup, and the cup is then covered with the lid. […] Mortality (%)=(Number of dead insects/Number of tested insects)×100
Structure (SMILES),mortality at 3.5 ppm [1] [%],mortality at 500 ppm [2] [%],mortality at 40 mg/m2 [3] [%],mortality at 500 ppm [4] [%]
CCSc1c(-n2nnc3ccc(C(F)(F)F)cc3c2=O)nc2ccc(Br)cn12 [Present compound 4-2],≥ 91,≥ 80,≥ 80,
CCSc1c(-n2cnc3cc(C(F)(F)F)ccc3c2=O)nc2cc(C(F)(F)F)ccn12 [Present compound 2-15],≥ 91,,,≥ 70
CCSc1c(-n2cnc3cc(C(F)(F)F)ccc3c2=O)nc2ccc(Br)cn12 [Present compound 2-1],≥ 91,≥ 80,,
